This passage reports Ki results from patent publication US10160762B2, “6-alkyl dihydropyrazolopyrimidinone compounds as PDE2 inhibitors” (Merck Sharp & Dohme Corp., priority 2015, dated 2018).

The target of the assay is T1, human PDE2A1 (Homo sapiens, UniProt O00408).
T1 construct: GST; purchased BPS Bioscience (San Diego, Calif.) 60020; host or cells: insect cells
Nature of the assay: IMAP FP PDE assay, human PDE2A1. The format is biochemical. A digest of the protocol: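 GST-tagged human PDE2A1 from insect cells; substrate 50 nM FAM-cAMP containing 1000 nM cGMP in Tris pH 7.2/MgCl2/DTT buffer, enzyme giving 20% conversion. 60 min at room temperature, IMAP binding reagent, fluorescence polarization read. Apparent Ki from FP readings using apparent KM 10,000 nM; ten-point 3-fold titrations.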

The mark [1] stands for this setting: Lab A, read-out: Human PDE2 Ki (nM) Lab A.
[2] abbreviates: Lab B, read-out: Human PDE2 Ki (nM) Lab B.

Read-outs that look alike come from different tables or passages of the source.

T1 sequence (O00408 1-920 isoform O00408-2): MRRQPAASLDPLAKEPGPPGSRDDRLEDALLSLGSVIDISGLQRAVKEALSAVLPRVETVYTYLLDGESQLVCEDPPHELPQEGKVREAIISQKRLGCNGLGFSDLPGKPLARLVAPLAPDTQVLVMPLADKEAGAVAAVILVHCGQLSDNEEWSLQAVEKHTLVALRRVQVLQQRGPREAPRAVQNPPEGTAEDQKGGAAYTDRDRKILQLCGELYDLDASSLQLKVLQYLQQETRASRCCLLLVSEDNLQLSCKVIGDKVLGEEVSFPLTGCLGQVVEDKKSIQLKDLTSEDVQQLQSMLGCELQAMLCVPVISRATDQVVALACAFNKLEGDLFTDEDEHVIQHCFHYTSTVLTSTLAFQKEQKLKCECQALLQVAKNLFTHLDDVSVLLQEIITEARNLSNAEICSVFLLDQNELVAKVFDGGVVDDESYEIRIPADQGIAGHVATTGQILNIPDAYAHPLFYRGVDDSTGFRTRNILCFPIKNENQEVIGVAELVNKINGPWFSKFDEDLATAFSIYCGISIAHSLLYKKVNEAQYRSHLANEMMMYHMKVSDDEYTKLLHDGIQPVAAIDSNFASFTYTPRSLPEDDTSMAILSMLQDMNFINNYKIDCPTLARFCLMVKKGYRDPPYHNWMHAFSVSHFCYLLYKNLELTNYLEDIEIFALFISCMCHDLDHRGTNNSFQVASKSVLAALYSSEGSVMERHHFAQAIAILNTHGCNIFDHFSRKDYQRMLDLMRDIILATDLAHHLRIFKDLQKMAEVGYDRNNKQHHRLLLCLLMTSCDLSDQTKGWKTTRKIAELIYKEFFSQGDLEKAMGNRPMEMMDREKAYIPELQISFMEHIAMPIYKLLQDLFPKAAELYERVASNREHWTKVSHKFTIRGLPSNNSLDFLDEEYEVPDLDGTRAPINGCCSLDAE

Usually Ki stands for a dissociation constant, usually derived from enzyme kinetics or from competition with a known ligand. Regarding `Cc1nc(-c2nc3c(c(C)nn3C(C)c3ccc(C(F)(F)F)cc3)c(=O)[nH]2)c(C)o1` (stereo not drawn) [Example 54, 6-(2,5-Dimethyl-1,3-oxazol-4-yl)-3-methyl-1-{1-[4-(trifluoromethyl)phenyl]ethyl}-1,5-dihydro-4H-pyrazolo[3,4-d]pyrimidin-4-one], the Ki under setting [1] was 12 nM.

Take `Cc1nc2c(c(CO)nn2C(C)c2ccc(C(F)(F)F)c(F)c2)c(=O)[nH]1` (single isomer, unassigned) [Example 12, (R)- or (S)-1-(1-(3-Fluoro-4-(trifluoromethyl)phenyl)ethyl)-3-(hydroxymethyl)-6-methyl-1H-pyrazolo[3,4-d]pyrimidin-4(5H)-one]: under setting [2], the Ki was 205 nM.

As for `Cc1nc2c(c(C)nn2C(C)c2ccc(C(F)(F)F)cc2)c(=O)[nH]1` (single isomer, unassigned) [Example 36], the Ki under setting [1] was 428 nM.

On to `Cc1nc2c(c(CO)nn2[C@@H](C)c2ccc(C(C)(C)C)cc2)c(=O)[nH]1` [Example 157, (S)-1-(1-(4-tert-Butylphenyl)ethyl)-3-(hydroxymethyl)-6-methyl-1H-pyrazolo[3,4-d]pyrimidin-4(5H)-one], for which, under setting [2], the Ki came to 1.1 nM.

Turning to `Cc1nc2c(c(C(F)F)nn2C(C)c2ccc(C(F)(F)F)cc2)c(=O)[nH]1` (stereo not drawn) [Example 166, 3-(Difluoromethyl)-6-methyl-1-{1-[4-(trifluoromethyl)phenyl]ethyl}-1,5-dihydro-4H-pyrazolo[3,4-d]pyrimidin-4-one], the Ki is, setting by setting: under setting [1], around 5.9 nM; under setting [2], 9.5 nM.

Take `Cc1nc2c(c(CO)nn2C(C)c2ccc(C3CC3)cc2)c(=O)[nH]1` (stereo not drawn) [Example 3, 1-(1-(4-Cyclopropylphenl)ethyl)-3-(hydroxymethyl)-6-methyl-1H-pyrazolo[3,4-d]pyrimidin-4(5H)-one]: the Ki under setting [2] was 3.7 nM.

In the case of `Cc1nn(C(C)c2ccc(C(F)(F)F)cc2)c2nc(-c3ccccn3)[nH]c(=O)c12` (stereo not drawn) [Example 52, 3-Methyl-6-pyridin-2-yl-1-{1-[4-(trifluoromethyl)phenyl]ethyl}-1,5-dihydro-4H-pyrazolo[3,4-d]pyrimidin-4-one], the Ki under setting [1] came to 18 nM.

Regarding `Cc1nc2c(c(CO)nn2C(c2ccc(C(F)(F)F)c(F)c2)C(C)(C)C)c(=O)[nH]1` (single isomer, unassigned) [Example 129, (S)- or (R)-1-(1-(3-Fluoro-4-(trifluoromethyl)phenyl)-2,2-dimethylpropyl)-3-(hydroxyl-methyl)-6-methyl-1H-pyrazolo-[3,4-d]pyrimidin-4(5H)-one], the Ki under setting [2] was 8.9 nM.

For `COCc1nc2c(c(CF)nn2C(C)c2ccc(C(F)(F)F)cc2)c(=O)[nH]1` (stereo not drawn) [Example 205, 3-(Fluoromethyl)-6-(methoxymethyl)-1-{1-[4-(trifluoromethyl)phenyl]ethyl}-1,5-dihydro-4H-pyrazolo[3,4-d]pyrimidin-4-one], the Ki under setting [2] was determined as 3.4 nM.

With `Cc1nn(C(C)c2ccc(C(F)(F)F)cc2)c2nc(-c3cnc4ccccc4n3)[nH]c(=O)c12` (stereo not drawn) [Example 50, 3-Methyl-6-quinoxalin-2-yl-1-{1-[4-(trifluoromethyl)phenyl]ethyl}-1,5-dihydro-4H-pyrazolo[3,4-d]pyrimidin-4-one], the Ki under setting [1] is 47 nM.

Turning to `Cc1nc2c(c(C(C)O)nn2C(C)c2ccc(C(F)(F)F)cc2)c(=O)[nH]1` (stereo not drawn) [Example 328, 3-(1-Hydroxyethyl)-6-methyl-1-{1-[4-(trifluoromethyl)phenyl]ethyl}-1,5-dihydro-4H-pyrazolo[3,4-d]pyrimidin-4-one], the Ki by setting is: under setting [1], around 11 nM; under setting [2], 31 nM.

Regarding `Cc1nc2c(c(C(F)F)nn2C(C)c2ccc(C(F)(F)F)cc2)c(=O)[nH]1` (single isomer, unassigned) [Example 176], the Ki under setting [2] was 1.3 nM.

As to `Cc1nc2c(c(C)nn2C(C)c2ccc(C(F)(F)F)cc2)c(=O)[nH]1` (single isomer, unassigned) [Example 37], under setting [1], the Ki was determined as 23 nM.

Turning to `Cc1ccc(C(C)n2nc(CF)c3c(=O)[nH]c(C)nc32)cc1` (stereo not drawn) [Example 203, 3-(Fluoromethyl)-6-methyl-1-(1-p-tolylethyl)-1H-pyrazolo[3,4-d]pyrimidin-4(5H)-one], the Ki is 8.3 nM under setting [1] and 17 nM under setting [2].

Consider `Cc1nc2c(c(CO)nn2C(c2ccc(OC(F)(F)F)cc2)C2CC2)c(=O)[nH]1` (single isomer, unassigned) [Example 94, (R)- or (S)-1-(Cyclopropyl(4-(trifluoromethoxy)phenyl)methyl)-3-(hydroxymethyl)-6-methyl-1H-pyrazolo[3,4-d]pyrimidin-4(5H)-one], for which the inhibition constant Ki under setting [2] was found to be 18 nM.

As to `Cc1nn(C(C)c2ccc(C(F)(F)F)cc2)c2nc(-c3ccco3)[nH]c(=O)c12` (stereo not drawn) [Example 49, 6-Furan-2-yl-3-methyl-1-{1-[4-(trifluoromethyl)phenyl]ethyl}-1,5-dihydro-4H-pyrazolo[3,4-d]pyrimidin-4-one], under setting [1], the Ki was found to be 5.4 nM.

For the molecule `Cc1nc2c(c(CF)nn2C(C)c2ccc(OC(F)(F)F)c(F)c2)c(=O)[nH]1` (single isomer, unassigned) [Example 216, (R)- or (S)-1-(1-(3-Fluoro-4-(trifluoromethoxy)phenyl)ethyl)-3-(fluoromethyl)-6-methyl-1H-pyrazolo[3,4-d]pyrimidin-4(5H)-one], the Ki under setting [2] is 36 nM.

In the case of `Cc1nc2c(c(CO)nn2C(c2ccc(C(F)(F)F)cc2)C(F)(F)F)c(=O)[nH]1` (stereo not drawn) [Example 6, 3-(Hydroxymethyl)-6-methyl-1-(2,2,2-trifluoro-1-(4-(trifluoromethyl)phenyl)ethyl)-1H-pyrazolo[3,4-d]pyrimidin-4(5H)-one], the Ki under setting [2] was determined as 3.1 nM.

As for `Cc1nc2c(c(CF)nn2C(c2ccc(C(F)(F)F)cc2)C2CC2)c(=O)[nH]1` (stereo not drawn) [Example 231, 1-(cyclopropyl(4-(trifluoromethyl)phenyl)methyl)-3-(fluoromethyl)-6-methyl-1H-pyrazolo[3,4-d]pyrimidin-4(5H)-one], the Ki was 0.39 nM under setting [1] and 0.97 nM under setting [2].

Take `CCCc1nc2c(c(C)nn2C(C)c2ccc(C(F)(F)F)cc2)c(=O)[nH]1` (stereo not drawn) [Example 41, 3-Methyl-6-propyl-1-{1-[4-(trifluoromethyl)phenyl]ethyl}-1,5-dihydro-4H-pyrazolo[3,4-d]pyrimidin-4-one]: the Ki under setting [1] worked out at 35 nM.

Take `Cc1nn(C(C)c2ccc(C(F)(F)F)cc2)c2nc(-c3cnn(C)c3)[nH]c(=O)c12` (stereo not drawn) [Example 53, 3-Methyl-6-(1-methyl-1H-pyrazol-4-yl)-1-{1-[4-(trifluoromethyl)phenyl]ethyl}-1,5-dihydro-4H-pyrazolo[3,4-d]pyrimidin-4-one]: the inhibitory constant (Ki) under setting [1] was found to be 17 nM.

Consider `Cc1nc2c(c(CF)nn2C(C)c2ccc(C(F)(F)F)cc2)c(=O)[nH]1` (stereo not drawn) [Example 204, 3-(Fluoromethyl)-6-methyl-1-{1-[4-(trifluoromethyl)phenyl]ethyl}-1,5-dihydro-4H-pyrazolo[3,4-d]pyrimidin-4-one], for which the Ki under setting [1] is 2.7 nM.

Consider `COc1ccc(Cc2nc3c(c(CF)nn3C(C)c3ccc(C(F)(F)F)cc3)c(=O)[nH]2)cc1OC` (single isomer, unassigned) [Example 223, (S)- or (R)-6-(3,4-Dimethoxybenzyl)-3-(fluoromethyl)-1-(1-(4-(trifluoromethyl)phenyl)ethyl)-1,5-dihydro-4H-pyrazolo[3,4-d]pyrimidin-4-one], for which the inhibition constant Ki under setting [1] was 12 nM.
